“Also recorded” adds a separate entry of the source.

Common to all, as to assay type: cell-based, human
In experiment [1] the test system is p80. The experiment in a line: Western analysis of p80 expression in drug-treated SKOV3 cells. As to conditions: for expression of p80 (Western blotting): OVCA cells, calculated as p80 per mg protein or DNA; for expression of p80 (Western analysis): SKOV3, 24-hour treatment, compared to control DMSO-treated cells. The procedure: FIG. 9. […] Rat brain extract was used as a positive control (lane e). MW=Molecular weight markers (High Range SDS-PAGE standard). Actin was detected as loading control.
Western Blot Analysis: The cell monolayer was lysed with lysis buffer containing six protease inhibitors (Protease Cocktail; Roche), incubated on ice for 10 min, and scraped with a rubber policeman. Cell lysate was collected and centrifuged at 12,000× g for 30 min. Supernatants were saved for SDS-PAGE and Western blot analysis, and pellets were extracted by SDS-PAGE sample buffer (minus reducing reagent). The total amount of protein in each extract was determined by the bicinchoninic acid (BCA) method. SDS-PAGE was performed, loading the same amount of total protein in the same volume into each sample well, using commercially available precast 4-15% gradient SDS-polyacrylamide gels (Bio Rad). High range SDS-PAGE standard (Bio Rad) was run as a standard. After electrophoresis, proteins were transferred onto a PVDF membrane. After transfer, the membrane was incubated with primary antibody, then washed, and incubated with peroxidase-labeled second antibody. Signals were visualized on Hyperfilm-ECL by the ECL-reagents (Amersham).
SDS-PAGE and Western Blot Analysis: The cell monolayer was lysed with lysis buffer containing 6 protease inhibitors (Boehringer-Mannheim). Cell lysate was collected by centrifugation after the supernatants were saved. The pellet was extracted by boiling with SDS-containing buffer. The total amount of protein in each extract was determined. SDS-PAGE was performed by loading the same amount of total protein into each sample well. After electrophoresis, proteins were electro-transferred onto a PVDF membrane. Then, the membrane was incubated with primary antibody, washed, and incubated with peroxidase conjugated horse anti-mouse IgG (H+L). Signals were developed with an enhanced luminescence reagent (ECL, Amersham) and visualized on Hyper ECL-Film. (Amersham). Signal density was measured and analyzed by a densitometer. Western analysis can furnish information on immunoreactivity and molecular size; therefore, this technique was often used for the first-line screening of the presence of p80. However, if there was any ambiguity about the cross-reactivity, the results were double checked with Northern blotting or RT-PCR with specific primers.
(§1) Rationale and Experiments: In order to assess the effects of various classes of chemotherapy on p80-containing OVCA cells and to elucidate the relationship between p80, EM, and OVCA proliferation, EM or tamoxifen or the NADPH-oxidase inhibitor diphenyleneiodonium treatment was carried out. […] The treatment was followed with Western blotting to determine the effect of each agent on p80 expression. To control for reduced cell numbers or changes in cell volume as confounding factors, results were calculated on the basis of p80 per mg protein or DNA in the cells.

The test system of experiment [2] is OVCA cell lines. The experiment in a line: MTT assay of OVCA cell proliferation. Particulars: data not shown; for cell proliferation (MTT assay): all the cell lines, same doses as the p80 experiment. The procedure: as §1
To further test the relationship between p80 and OVCA proliferation, OVCA cells were treated with EGF and measured proliferation (MTT assay) and the expression of p80 (Western Blotting). Again, results were calculated on a per mg protein or DNA basis to avoid confounding. […] (2) E-M/ECC's and their roles as specific antimicrotubular agents will be tested.
Background: Tetrazolium assays rely on reduction of a dye to a coloured formazan, in cell work by metabolically active cells.

The subject of experiment [3] is OVCA cell lines. The experiment in a line: 3H-thymidine uptake in cultured OVCA cells. As to conditions: all OVCA cell lines; 1-100 μg/ml. The text has this: Culture of OVCA cell lines and cell cultures. Rationale: In order to determine the efficacy of inhibiting human OVCA cells with drugs, four extensively characterized OVCA cell lines, three in-house lines, DK2NMA, BIXLER, BIX3 (all courtesy of Drs. S. Chambers and B. Kacinski), (Peter B. Kaufman, William, Wu, Donghern Kim, Leland J. Cseke. Molecular Biology and Medicine. CRC Press inc., Boca Raton, Florida Chapter 12:289-304, 1995) and SKOV3, obtained from American Type Culture Collection, were established in mono-layer culture. Experiments: In preparation for drug treatment, cell suspensions were thor-oughly dispersed, precisely counted and then seeded into another flask at the desired cell den-sity. Conclusion: The cell lines were established, and test drugs shown to predictably affect the cells. Results were produced that meet stringent reliability criteria, including precision i.e., small variability between replicates.
Inhibition of OVCA cell proliferation by EM (estrogen mustard). Rationale: Clini-cally, EM has modest systemic toxicity and has been partially effective in the treatment of advanced prostatic carcinoma. […] Therefore, the effect of EM on OVCA cells was studied. Experiments: 3H-thymidine uptake was used to test the effect of EM against cultured OVCA cells in a wide range of concentrations (1-100 μg/ml). […]

The subject of experiment [4] is OVCA cell lines. The experiment in a line: Flow cytometry of the cell cycle distribution of OVCA. Particulars: all OVCA cell lines; 24 hours treatment; 1-100 μgm/ml; compared to control DMSO-treated cells. The text has this: Effect of EM on the cell cycle of OVCA. Rationale: Since EM's antiproliferative activity could be due to the disruption of mitosis and other crucial microtubule-dependent cellular functions, flow cytometry was used to investigate the effect of EM on the cell cycle distribution of OVCA. Experiments: Following EM administration (1-100/ μgm/ml) the flasks were trypsinized and all cells subjected to flow cytometry in the Yale Cancer Center Core laboratory. […] Conclusions: (1) EM induced cell cycle synchronization at G2/M. This was consistent with an action on OVCA microtubule associated proteins (MAP's). (2) Synchronization in G2/M raised the possibility of radio-sensitization (Barnes WM. PCR amplification of up to 35-Kb DNA with high fidelity and high yield from lambda bacteriophage templates. Proc Natl Acad Sci USA March 15; 91 (6): 2216-20, 1994; Mandelkow E, Mandelkow E-M. Microtubules and microtubule-associated proteins. Current Opinion in Cell Biology 7:72-81, 1995.
(Flow cytometry measures light scatter and fluorescence of single cells or particles in a stream.)

Experiment [5] concerns p80. The experiment in a line: Immunofluorescence staining of p80 in PMA-treated THP-1 cells. As to conditions: 10 ng/ml, 5 days. The procedure: (§2) FIG. 11. (Top): Light microscopy of THP-1 cells after treatment of PMA. A. untreated THP-1 cells; B. THP-1 cells treated with 10 ng for five days. (Middle): Western blotting analysis of p80 in PMA-treated THP-1 cells. M: protein markers, Lane 1. SKOV3 (OVCA) as p80 positive control, Lane 2. Untreated THP-1 cells, supernatant from the cell lysate. Lane 3. Untreated THP-1 cell, pellet from the cell lysate. Lane 4. 5 day-PMA (10 ng/ml) treated THP-1 cells, supernatant from the cell lysate. Lane 5:5 day-PMA (10ng/ml) treated THP-1 cells, pellet from the cell lysate. Lane 6: human brain protein extract as 350 kDa MAP1a control. Lanes 7-12 are duplications of Lane 1-7. Note: Before PMA treatment there is a thick 80 kDa band in Lane 2; after 5 days of PMA treatment, the 80 kDa band became undetectable. (Bottom): IF straining of THP-1 cells after 5 days treatment with PMA. A. Untreated THP-1 cells; B. PMA (10 ng/ml) treated THP-1 cells.
(§3) Terminal Differentiation of THP-1 leukemia cells was associated with decreased expression of p80. […] The slide was studied by a fluorescence microscope for the presence of the P80 and photographed. […] Before treatment with PMA, the cells were round with bright fluorescence (FIG. 11-a Bottom); after PMA treatment, the cells grew processes with no IF of P80 (FIG. 11b Bottom). […]

In experiment [6] the test system is p80. The experiment in a line: Western blotting of p80 in PMA-treated THP-1 cells. Particulars: 10 ng/ml, 5 days. How it is done:
as §2, §3
A general note: In western blotting, separated proteins are transferred to a membrane and probed.

In experiment [7] the test system is THP-1 promonocytic leukemia cell line. The experiment in a line: Cell morphology/differentiation of THP-1 leukemia cells after PMA. As to conditions: THP-1 cells; 10 ng/ml. How it is done:
as §2, §3

Experiment [8] concerns p80. The experiment in a line: SDS-PAGE/Western blot of p80 in BIX3 OVCA cells after EGF treatment. As to conditions: per mg protein or DNA basis, compared to untreated control. The procedure:
FIG. 10. SDS-PAGE/Western blot analysis of p80 in BIX3 OVCA cells following treatment with EGF, (see text). The lanes are as follows: (a) protein standards, (b) control-untreated, (c) EGF-treated. The density of p80 expression was increased after EGF treatment. Actin was detected as loading control.
Stimulation of expression of p80 by epidermal growth factor (EGF). […] To further test the relationship between p80 and OVCA proliferation, OVCA cells were treated with EGF and measured proliferation (MTT assay) and the expression of p80 (Western Blotting). Again, results were calculated on a per mg protein or DNA basis to avoid confounding. Findings: (1) Increasing doses of EGF (10-50 ng/ml) stimulated OVCA proliferation in comparison to untreated controls (data not shown). […] (2) E-M/ECC's and their roles as specific antimicrotubular agents will be tested. Alternative approaches, such as targeting this molecule by using antisense DNA/RNA to block its expression could be helpful in elucidating whether the expression of this protein is a cause or an effect of OVCA proliferation. Furthermore, the antisense approach may also lead to the development of a novel modality for OVCA therapy targeting p80.

Consider `c1ccc2c(c1)[I+]c1ccccc1-2` [DPI, diphenyleneiodonium], for which the “expression of p80 (Western blotting)” value in the experiment with p80 [1] is given as “significantly inhibited”. In addition, in the experiment with p80 [1] (10 μM), the “expression of p80 (Western analysis)” value is listed as “significant decreases”. For the same compound, in the experiment with OVCA cell lines [2], the “cell proliferation (MTT assay)” value was “significantly decreased”.

Regarding `C[C@]12CC[C@@H]3c4ccc(OC(=O)N(CCCl)CCCl)cc4CC[C@H]3[C@@H]1CC[C@@H]2O` [EM, estrogen mustard], the “expression of p80 (Western blotting)” value with p80 [1] is reported as “significantly inhibited”. Also, in the experiment with p80 [1] (10 μM), the “expression of p80 (Western analysis)” value is given as “significant decreases”. For the same compound, the 3H-thymidine incorporation result in the experiment with OVCA cell lines [3] is “marked, dose-dependent inhibition”. Further, the “cell proliferation (MTT assay)” value in the experiment on OVCA cell lines [2] is “significantly decreased”. The “percentages of cells in G2/M phase” value in the experiment on OVCA cell lines [4] was “significant increase”.

As to `CCCCCCCCCCCCCC(=O)O[C@@H]1[C@@H](C)[C@@]2(O)[C@@H](C=C(CO)C[C@]3(O)C(=O)C(C)=C[C@@H]23)[C@@H]2C(C)(C)[C@]12OC(C)=O` [PMA, phorbol myristic acetate], the “immunofluorescence (IF) of p80” value with p80 [5] is “no IF of P80”. Moreover, the “p80 (80 kDa band) on Western blots” value in the experiment on p80 [6] is “disappeared; also recorded: undetectable”. Further, the “differentiation / cell morphology” value in experiment [7] is recorded as “began to differentiate to monocytes/macrophages”.

With `CC/C(=C(\c1ccccc1)c1ccc(OCCN(C)C)cc1)c1ccccc1` [TMX, tamoxifen], the “expression of p80 (Western blotting)” value with p80 [1] was “significantly inhibited”. Besides, the “expression of p80 (Western analysis)” value in the experiment with p80 [1] (100 μM) is recorded as “significant decreases”. Further, the “cell proliferation (MTT assay)” value with OVCA cell lines [2] is reported as “significantly decreased”.

Turning to “epidermal growth factor (NSDSECPLSHDGYCLHDGVCMYIEALDKYACNCVVGYIGERCQYRDLKWWELR; Epidermal growth factor; UniProt P01133 971-1023, looked up) [EGF, growth factor; ovarian cancer cells have EGF receptors]”, the “expression of p80 (Western blotting)” value in the experiment with p80 [8] was “increased significantly”. In the experiment on OVCA cell lines [2] (10-50 ng/ml, increasing doses, compared to untreated controls), the “OVCA proliferation (MTT assay)” value is “stimulated”.

Values taken from patent publication US20240361324A1, “POINT OF SERVICE METHOD OF DETECTING, DIAGNOSING AND FOLLOWING CANCER AND OTHER PROLIFERATIVE CONDITIONS” (priority 2021, published 2024).
